Results reported in patent US12077503B2, “Substituted cyclic amides and their use as herbicides” (FMC CORPORATION, priority 2015, dated 2024).

Legend:
Type in all cases: in vivo
corn (Zea mays) [1] = assay: Test G Post-Emergence Protocol; settings: Zea mays, post-emergence, 312 h, read-out: Corn damage rating; for plant injury at 15.625 g/ha: 15.625 g ai/ha, evaluated after 13 days (100=total damage to plant; 0=no damage to plant); for plant injury at 62.5 g/ha: 62.5 g ai/ha; for plant injury at 62.5 g/ha / plant injury at 250 g/ha: evaluated after 13 days, 100=total damage to plant, 0=no damage to plant; for plant injury at 250 g/ha: 250 g ai/ha
Outline: (§1)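 Foliar application was made 8 days after sowing, using an aqueous spray of the active in acetone/water (50:50) with 0.5% Tween 20, at doses of 15.625, 62.5 or 250 g/ha. Injury was assessed 13 days later, where 100 meant the plant was fully damaged.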

[2] = system: velvetleaf (Abutilon theophrasti); assay: Test G Post-Emergence Protocol; settings: Abutilon theophrasti, post-emergence, 312 h, read-out: Velvetleaf damage rating; for pest or weed control at 15.625 g/ha: 15.625 g ai/ha, evaluated after 13 days (100=total damage to plant; 0=no damage to plant); for pest or weed control at 62.5 g/ha: 62.5 g ai/ha; for pest or weed control at 62.5 g/ha / pest or weed control at 250 g/ha: evaluated after 13 days, 100=total damage to plant, 0=no damage to plant; for pest or weed control at 250 g/ha: 250 g ai/ha
Outline: as §1

[3] = system: ivy-leaved morning glory (Ipomoea hederacea); assay: Test G Post-Emergence Protocol; settings: Ipomoea, post-emergence, 312 h, read-out: Morningglory, Ivy-leaved damage rating; for pest or weed control at 15.625 g/ha: 15.625 g ai/ha, evaluated after 13 days (100=total damage to plant; 0=no damage to plant); for pest or weed control at 62.5 g/ha: 62.5 g ai/ha; for pest or weed control at 62.5 g/ha / pest or weed control at 250 g/ha: evaluated after 13 days, 100=total damage to plant, 0=no damage to plant; for pest or weed control at 250 g/ha: 250 g ai/ha
Outline: as §1

[4] = system: redroot pigweed (Amaranthus retroflexus); assay: Test G Post-Emergence Protocol; settings: Amaranthus retroflexus, post-emergence, 312 h, read-out: Pigweed, Redroot damage rating; for pest or weed control at 15.625 g/ha: 15.625 g ai/ha, evaluated after 13 days (100=total damage to plant; 0=no damage to plant); for pest or weed control at 62.5 g/ha: 62.5 g ai/ha; for pest or weed control at 62.5 g/ha / pest or weed control at 250 g/ha: evaluated after 13 days, 100=total damage to plant, 0=no damage to plant; for pest or weed control at 250 g/ha: 250 g ai/ha
Outline: as §1

[5] = system: barnyardgrass (Echinochloa crus-galli); assay: Test G Post-Emergence Protocol; settings: Echinochloa crus-galli, post-emergence, 312 h, read-out: Barnyardgrass damage rating; for pest or weed control at 15.625 g/ha: 15.625 g ai/ha, evaluated after 13 days (100=total damage to plant; 0=no damage to plant); for pest or weed control at 62.5 g/ha: 62.5 g ai/ha; for pest or weed control at 62.5 g/ha / pest or weed control at 250 g/ha: evaluated after 13 days, 100=total damage to plant, 0=no damage to plant; for pest or weed control at 250 g/ha: 250 g ai/ha
Outline: as §1

[6] = system: giant foxtail (Setaria faberi); assay: Test G Post-Emergence Protocol; settings: Setaria faberi, post-emergence, 312 h, read-out: Foxtail, Giant damage rating; for pest or weed control at 15.625 g/ha: 15.625 g ai/ha, evaluated after 13 days (100=total damage to plant; 0=no damage to plant); for pest or weed control at 62.5 g/ha: 62.5 g ai/ha; for pest or weed control at 62.5 g/ha / pest or weed control at 250 g/ha: evaluated after 13 days, 100=total damage to plant, 0=no damage to plant; for pest or weed control at 250 g/ha: 250 g ai/ha
Outline: as §1

corn (Zea mays) [7] = assay: Test G Pre-Emergence Protocol; settings: Zea mays, pre-emergence, 312 h, evaluated after 13 days; for plant injury at 15.625 g/ha: 15.625 g ai/ha; for plant injury at 15.625 g/ha / plant injury at 250 g/ha: read-out: Corn damage rating (100=total damage to plant; 0=no damage to plant); for plant injury at 62.5 g/ha: 62.5 g ai/ha, 100=total damage to plant, 0=no damage to plant, read-out: Corn damage rating; for plant injury at 250 g/ha: 250 g ai/ha
Outline: (§2)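 Test compound in 0.5% Tween 20 acetone/water (50:50) was applied at three rates (15.625, 62.5, 250 g/ha) to soil sown one day earlier. After 13 days plants were scored for injury, where 0 means unaffected and 100 means completely damaged.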

[8] = system: velvetleaf (Abutilon theophrasti); assay: Test G Pre-Emergence Protocol; settings: Abutilon theophrasti, pre-emergence, 312 h, evaluated after 13 days; for pest or weed control at 15.625 g/ha: 15.625 g ai/ha; for pest or weed control at 15.625 g/ha / pest or weed control at 250 g/ha: read-out: Velvetleaf damage rating (100=total damage to plant; 0=no damage to plant); for pest or weed control at 62.5 g/ha: 62.5 g ai/ha, 100=total damage to plant, 0=no damage to plant, read-out: Velvetleaf damage rating; for pest or weed control at 250 g/ha: 250 g ai/ha
Outline: as §2

[9] = system: ivy-leaved morning glory (Ipomoea hederacea); assay: Test G Pre-Emergence Protocol; settings: Ipomoea, pre-emergence, 312 h, evaluated after 13 days; for pest or weed control at 15.625 g/ha: 15.625 g ai/ha; for pest or weed control at 15.625 g/ha / pest or weed control at 250 g/ha: read-out: Morningglory, Ivy-leaved damage rating (100=total damage to plant; 0=no damage to plant); for pest or weed control at 62.5 g/ha: 62.5 g ai/ha, 100=total damage to plant, 0=no damage to plant, read-out: Morningglory, Ivy-leaved damage rating; for pest or weed control at 250 g/ha: 250 g ai/ha
Outline: as §2

[10] = system: redroot pigweed (Amaranthus retroflexus); assay: Test G Pre-Emergence Protocol; settings: Amaranthus retroflexus, pre-emergence, 312 h, evaluated after 13 days; for pest or weed control at 15.625 g/ha: 15.625 g ai/ha; for pest or weed control at 15.625 g/ha / pest or weed control at 250 g/ha: read-out: Pigweed, Redroot damage rating (100=total damage to plant; 0=no damage to plant); for pest or weed control at 62.5 g/ha: 62.5 g ai/ha, 100=total damage to plant, 0=no damage to plant, read-out: Pigweed, Redroot damage rating; for pest or weed control at 250 g/ha: 250 g ai/ha
Outline: as §2

[11] = system: barnyardgrass (Echinochloa crus-galli); assay: Test G Pre-Emergence Protocol; settings: Echinochloa crus-galli, pre-emergence, 312 h, evaluated after 13 days; for pest or weed control at 15.625 g/ha: 15.625 g ai/ha; for pest or weed control at 15.625 g/ha / pest or weed control at 250 g/ha: read-out: Barnyardgrass damage rating (100=total damage to plant; 0=no damage to plant); for pest or weed control at 62.5 g/ha: 62.5 g ai/ha, 100=total damage to plant, 0=no damage to plant, read-out: Barnyardgrass damage rating; for pest or weed control at 250 g/ha: 250 g ai/ha
Outline: as §2

[12] = system: giant foxtail (Setaria faberi); assay: Test G Pre-Emergence Protocol; settings: Setaria faberi, pre-emergence, 312 h, evaluated after 13 days; for pest or weed control at 15.625 g/ha: 15.625 g ai/ha; for pest or weed control at 15.625 g/ha / pest or weed control at 250 g/ha: read-out: Foxtail, Giant damage rating (100=total damage to plant; 0=no damage to plant); for pest or weed control at 62.5 g/ha: 62.5 g ai/ha, 100=total damage to plant, 0=no damage to plant, read-out: Foxtail, Giant damage rating; for pest or weed control at 250 g/ha: 250 g ai/ha
Outline: as §2

| Structure (SMILES) | plant injury at 15.625 g/ha (corn (Zea mays) [1]) | plant injury at 62.5 g/ha (corn (Zea mays) [1]) | plant injury at 250 g/ha (corn (Zea mays) [1]) | pest or weed control at 15.625 g/ha [2] | pest or weed control at 62.5 g/ha [2] | pest or weed control at 250 g/ha [2] | pest or weed control at 15.625 g/ha [3] | pest or weed control at 62.5 g/ha [3] | pest or weed control at 250 g/ha [3] | pest or weed control at 15.625 g/ha [4] | pest or weed control at 62.5 g/ha [4] | pest or weed control at 250 g/ha [4] | pest or weed control at 15.625 g/ha [5] | pest or weed control at 62.5 g/ha [5] | pest or weed control at 250 g/ha [5] | pest or weed control at 15.625 g/ha [6] | pest or weed control at 62.5 g/ha [6] | pest or weed control at 250 g/ha [6] | plant injury at 15.625 g/ha (corn (Zea mays) [7]) | plant injury at 62.5 g/ha (corn (Zea mays) [7]) | further results |
| --- | --- | --- | --- | --- | --- | --- | --- | --- | --- | --- | --- | --- | --- | --- | --- | --- | --- | --- | --- | --- | --- |
| COc1cc(OC(F)(F)F)cc(C2CN(C)C(=O)C2C(=O)Nc2cccc(F)c2F)c1 (stereo not drawn) [Compound 1697] | 10% | 80% | 80% | 0% | 30% | 30% | 30% | 60% | 60% | 20% | 60% | 70% | 60% | 70% | 90% | 80% | 80% | 80% | 0% | 40% | plant injury at 250 g/ha (corn (Zea mays) [7]): 50%; pest or weed control at 15.625 g/ha [8]: 0%; pest or weed control at 62.5 g/ha [8]: 0%; pest or weed control at 250 g/ha [8]: 20%; pest or weed control at 15.625 g/ha [9]: 0%; pest or weed control at 62.5 g/ha [9]: 0%; pest or weed control at 250 g/ha [9]: 0%; pest or weed control at 15.625 g/ha [10]: 0%; pest or weed control at 62.5 g/ha [10]: 0%; pest or weed control at 250 g/ha [10]: 20%; pest or weed control at 15.625 g/ha [11]: 40%; pest or weed control at 62.5 g/ha [11]: 70%; pest or weed control at 250 g/ha [11]: 80%; pest or weed control at 15.625 g/ha [12]: 70%; pest or weed control at 62.5 g/ha [12]: 80%; pest or weed control at 250 g/ha [12]: 80% |
| CN1C[C@@H](c2cc(Br)cc(Oc3ccccc3)c2)[C@H](C(=O)Nc2cccc(F)c2F)C1=O (racemic) [Compound 1821] | 10% | 10% | 30% | 0% | 10% | 0% | 0% | 0% | 10% | 0% | 30% | 70% | 0% | 0% | 0% | 0% | 10% | 30% | 0% | 10% | plant injury at 250 g/ha (corn (Zea mays) [7]): 0%; pest or weed control at 15.625 g/ha [8]: 0%; pest or weed control at 62.5 g/ha [8]: 0%; pest or weed control at 250 g/ha [8]: 0%; pest or weed control at 15.625 g/ha [9]: 0%; pest or weed control at 62.5 g/ha [9]: 0%; pest or weed control at 250 g/ha [9]: 0%; pest or weed control at 15.625 g/ha [10]: 0%; pest or weed control at 62.5 g/ha [10]: 0%; pest or weed control at 250 g/ha [10]: 20%; pest or weed control at 15.625 g/ha [11]: 0%; pest or weed control at 62.5 g/ha [11]: 0%; pest or weed control at 250 g/ha [11]: 0%; pest or weed control at 15.625 g/ha [12]: 0%; pest or weed control at 62.5 g/ha [12]: 10%; pest or weed control at 250 g/ha [12]: 60% |
| CCCOc1cc(OC(F)(F)F)cc(C2CN(C)C(=O)C2C(=O)Nc2cccc(F)c2F)c1 (stereo not drawn) [Compound 1693] | 0% | 10% | 70% | 0% | 30% | 20% | 0% | 50% | 60% | 20% | 50% | 60% | 0% | 30% | 80% | 0% | 60% | 80% | 0% | 30% | plant injury at 250 g/ha (corn (Zea mays) [7]): 40%; pest or weed control at 15.625 g/ha [8]: 0%; pest or weed control at 62.5 g/ha [8]: 0%; pest or weed control at 250 g/ha [8]: 10%; pest or weed control at 15.625 g/ha [9]: 0%; pest or weed control at 62.5 g/ha [9]: 20%; pest or weed control at 250 g/ha [9]: 20%; pest or weed control at 15.625 g/ha [10]: 0%; pest or weed control at 62.5 g/ha [10]: 0%; pest or weed control at 250 g/ha [10]: 10%; pest or weed control at 15.625 g/ha [11]: 0%; pest or weed control at 62.5 g/ha [11]: 70%; pest or weed control at 250 g/ha [11]: 70%; pest or weed control at 15.625 g/ha [12]: 0%; pest or weed control at 62.5 g/ha [12]: 50%; pest or weed control at 250 g/ha [12]: 70% |
